{"source": "patent US20020120111A1", "about": "“Dwf5 mutants” (priority 2000, published 2002)", "key": {"[1]": {"system": "dwf5-1 plants", "experiment": "biochemical complementation of dwf5-1 plants with brassinolide and its biosynthetic intermediates (pedicel length)", "format": "in vivo, Arabidopsis", "conditions": "for dwf5 pedicel length compared to a water-treated control: exogenous application, pedicel length measured 7 days after application (n=15), FIG. 2", "protocol": "Standard procedures for plant growth, measurements on floral organs, scoring the number of seeds in a silique, biochemical complementation tests with Brassinosteroids, analysis of endogenous Brassinosteroids, and 13C-labeled mevalonic acid feeding experiments have been described previously (Choe, et al., 1999b). […] The ability of Brassinosteroids to rescue the phenotype of dwf5 was tested. The data presented in FIG. 2 show the biochemical complementation of dwf5-1 plants with brassinolide (BL) and its biosynthetic intermediates. […] The length of pedicels was measured 7 days after application (n=15). Data points represent the average with one standard deviation. Further, the BR biosynthetic intermediate 6-deoxocathasterone (6-DeoxoCT), and the synthetic compound 22-hydroxycampesterol (22-OHCR) induced pedicel growth up to 80% of wild-type length."}, "[2]": {"system": "dwf5-1 seeds", "experiment": "seed germination on agar-solidified Murashige and Skoog media", "format": "in vivo, Arabidopsis", "conditions": "germination media supplemented with 10^−7 M brassinolide; without it <60% of dwf5-1 seeds germinated vs >90% of wild type", "excerpt": "The reduced germination of dwf5 seeds may be a secondary effect of retarded growth, or possibly DWF5 is involved in seed development and/or germination."}}}
{"smiles": "CC(C)[C@H](C)C[C@H](O)[C@@H](C)[C@H]1CC[C@H]2[C@@H]3CC=C4C[C@@H](O)CC[C@]4(C)[C@H]3CC[C@]12C", "note": "[22-hydroxycampesterol]", "values": [{"measurement": "dwf5 pedicel length compared to a water-treated control", "setting": "[1]", "result": "significant increases"}]}
{"smiles": "CC(C)[C@H](C)[C@@H](O)[C@H](O)[C@@H](C)[C@H]1CC[C@H]2[C@@H]3COC(=O)[C@H]4C[C@H](O)[C@H](O)C[C@]4(C)[C@H]3CC[C@]12C", "note": "[brassinolide]", "values": [{"measurement": "rescue of the length of dwf5 pedicels to that of wild type", "setting": "[1]; BL application", "result": "completely rescued"}, {"measurement": "dwf5 pedicel length compared to a water-treated control", "setting": "[1]", "result": "significant increases"}, {"measurement": "correction of reduced germination of dwf5 seeds", "setting": "[2]", "result": "partially corrected"}]}
{"smiles": "CC(C)[C@H](C)C[C@H](O)[C@@H](C)[C@H]1CC[C@H]2[C@@H]3CC[C@H]4C[C@@H](O)CC[C@]4(C)[C@H]3CC[C@]12C", "note": "[6-deoxocathasterone]", "values": [{"measurement": "dwf5 pedicel length compared to a water-treated control", "setting": "[1]", "result": "significant increases"}]}
